The values below come from paper PMC9636434, “Discovery of small molecule agonists of the Relaxin Family Peptide Receptor 2” (Communications Biology, 2022).

In this test the target is RXFP2 (Homo sapiens, UniProt Q8WXD0). The experiment in a line: Confirmatory CRE-luciferase reporter assay in HEK-CRE-Luc-RXFP2 cells. The class given is cell-based. The arrangement: FLAG (N); expressed in transfected cells. To be noted: for % Eff (CRE-luciferase): experiments (1)-(3). As to the method: A quantitative high-throughput screening (HTS) of more than 80 K compounds of the NCATS/NIH diversity collection was performed at four concentrations in HEK293T cells stably expressing human RXFP2 to identify candidate agonists. A homogenous time resolved fluorescence (HTRF) assay was used to directly detect compound-induced cAMP accumulation, with forskolin or human recombinant INSL3 serving as positive controls. […] Selected compounds with reasonable activity in dose response were also tested in a confirmatory orthogonal screening using a cAMP response element (CRE) driven luciferase reporter assay in HEK-CRE-Luc-RXFP2 cells, and in a counter-screen with cells transfected with human relaxin/insulin-like family peptide receptor 1 (RXFP1). Finally, we performed an extensive structure activity relationship campaign (SAR) to increase both the agonist efficacy and potency of the lead series. […] A confirmatory CRE-luciferase cAMP screen was used to eliminate any potential false positives due to assay detection artifacts (Supplementary Fig. 1a).
HEK293T-CRE-Luc cells express luciferase under the control of the cAMP response element (CRE), which allows for indirect measurement of intracellular cAMP accumulation. HEK293T-CRE-Luc cells were stably transfected with human RXFP2 (HEK-CRE-Luc-RXFP2) or transiently transfected as above with mouse Rxfp2 (HEK-CRE-Luc-Rxfp2). HEK-CRE-Luc-RXFP2 and HEK-CRE-Luc-Rxfp2 cells were seeded at 15,000 and 30,000 cells per well, respectively, in 96-well plates using serum-free DMEM medium and incubated overnight at 37 °C, 5% CO2. After 18 h, cells were treated with a titration of compound, a titration of INSL3, 5 μM forskolin or DMSO vehicle. After treatment, cells were incubated for 3 h at 37 °C, 5% CO2. Plates were then allowed to equilibrate for 30 min at room temperature and an equal volume of substrate (Amplite Luciferase Reporter Gene Assay Kit, AAT Bioquest, Sunnyvale, CA) was added to each well. Plates were incubated for 40 min at room temperature protected from light and the luciferase output was read on a CLARIOstar plate reader.
Supplementary Fig. 1: Compounds activate both human and mouse RXFP2 receptors. a Confirmatory CRE-Luciferase screening of RXFP2 agonists in st a b ly transfected HEK-CRE-Luc-RXFP2 cells. b Activation of mouse RXFP2 receptor by the compounds in transiently transfected HEK293T-CRE-Luc cells. Compound response was normalized to 100 nM INSL3 as 100% efficacy and DMSO vehicle as 0% efficacy.
Results are expressed as mean ± SEM of 3 independent experim ents.
(1 picture or pasted object on this page, not shown here)
A general note: Reporter assays use an easily measured gene product as a stand-in for the process of interest.

Where “and” joins values, the source holds several entries; their conditions need not be identical. Identical values can stand only once.

RXFP2, sequence (Q8WXD0 whole entry): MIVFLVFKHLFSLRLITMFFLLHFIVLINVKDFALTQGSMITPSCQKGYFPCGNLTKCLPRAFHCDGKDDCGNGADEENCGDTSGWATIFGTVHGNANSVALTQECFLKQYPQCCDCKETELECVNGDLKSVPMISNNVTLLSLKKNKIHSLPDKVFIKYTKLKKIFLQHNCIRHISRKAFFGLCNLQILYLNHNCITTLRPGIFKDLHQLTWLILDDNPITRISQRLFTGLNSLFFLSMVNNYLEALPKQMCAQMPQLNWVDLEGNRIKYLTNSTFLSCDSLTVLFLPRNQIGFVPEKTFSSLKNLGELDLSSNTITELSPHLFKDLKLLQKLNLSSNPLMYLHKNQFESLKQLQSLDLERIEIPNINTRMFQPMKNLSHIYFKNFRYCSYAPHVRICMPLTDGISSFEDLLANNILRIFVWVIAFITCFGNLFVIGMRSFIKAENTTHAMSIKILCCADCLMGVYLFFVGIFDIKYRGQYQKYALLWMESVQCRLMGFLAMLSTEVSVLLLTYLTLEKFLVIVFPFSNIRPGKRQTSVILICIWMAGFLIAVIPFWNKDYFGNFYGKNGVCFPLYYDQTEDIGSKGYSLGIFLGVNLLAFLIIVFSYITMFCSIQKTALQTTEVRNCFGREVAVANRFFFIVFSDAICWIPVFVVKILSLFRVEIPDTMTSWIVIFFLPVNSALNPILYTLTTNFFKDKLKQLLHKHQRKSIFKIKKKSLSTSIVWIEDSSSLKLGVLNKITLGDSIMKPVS

As for `O=C1Nc2ccc(-c3cc(C(F)(F)F)cc(C(F)(F)F)c3)cc2C(=O)N2CCN(C(=O)COc3ccc(OC(F)(F)F)cc3I)C[C@@H]12` [compound 6641], the “agonism of human RXFP2 in CRE-luciferase reporter assay” value (HEK-CRE-Luc-RXFP2) was “full agonist”. The “% Eff (CRE-luciferase)” value runs as follows: (Log [M] -4.60, 100 nM INSL3 = 100%, DMSO = 0%) 112.29% and 97.22% and 133.29%; (Log [M] -5.00) 116.16% and 119.1% and 157.5%; (Log [M] -5.78) 114.59% and 98.52% and 126.86%; (Log [M] -6.56) 113.18% and 86.94% and 103.38%; (Log [M] -7.33) 77.02% and 61.6% and 70.55%; (Log [M] -8.11) 44.24% and 30.05% and 30.02%. The “% Eff (CRE-luciferase)” value was 14.74% and 8.06% and 7.85% (Log [M] -8.89); 6.98% and 1.71% and 0.6% (Log [M] -9.67).
